According to patent US12629351B2, “HDAC inhibitors for idiopathic pulmonary fibrosis and other lung inflammatory disorders” (COUNCIL OF SCIENTIFIC AND INDUSTRIAL RESEARCH (AN INDIAN …, priority 2020, dated 2026):

Experiments:
NHLF cells = experiment: q-RT-PCR gene expression in TGF-β1 stimulated NHLF cells; assay type: cell-based, human
Description: (§1) LL29 cells (lung fibroblasts from IPF patient) were purchased from ATCC and cultured in Ham's F-12K medium supplemented with 15% FBS. Primary lung fibroblasts cells, NHLF and DHLF-IPF cells were purchased from LONZA and cultured in FGF-2 medium with FGF, Insulin and FBS. All the cells were maintained in a humidified atmosphere of 95% air with 5% CO2 at 37° C.
(§2) Cells were pre-treated with HDAC-inhibitors (COMPOUND-109, COMPOUND-108 and COMPOUND-107) for 2 hours in serum free media and then human recombinant TGF-β (R&D Systems, Minneapolis, MN) was added at a concentration of 5 ng/mL and cultured for 72 hours for all the experiments.
(§3) RNA isolation was carried out using Trizol as described^12,13. RNA was isolated using Trizol-chloroform method and total RNA was quantified using nano-drop, 1 μg of RNA was used for cDNA synthesis using primescript cDNA synthesis kit (Takara bio) according to manufacturer's instructions. Primers for EMT (Fibronectin1 (FN1), Vimentin, α-SMA and Snail) markers, ECM markers (Timp1, Timp3 and LoxL2), Collagen markers (Collagen 1α1 (Col1) and Collagen 3α1[…] and housekeeping markers (β2M and β-actin) were designed using Primer 3 software and all primer sequences were listed in Table 1. Real time quantitative PCR (qRT-PCR) was carried out using SYBR green master mix and the differences in mRNA expression of all the gene levels were calculated as the fold change using the formula 2-ΔΔct. In all Q-RT-PCR data plots, vehicle control fold change was normalized to 1.

LL29 cells = experiment: q-RT-PCR gene expression in TGF-β1 stimulated LL29 cells; assay type: cell-based, human
Description: as §1, §2, §3

[1] = tested on: NHLF, DHLF and LL29 cells; experiment: q-RT-PCR gene expression in TGF-β1 stimulated cells, statements not split by cell line; assay type: cell-based, human; conditions: for HDAC-8 levels (gene expression): TGF-β1 stimulated, other concentrations
Description: as §1, §2, §3

LPS induced ARDS = LPS induced ARDS model; assay type: in vivo, SD rats
Description: as §3
Treatment group animals were treated with HDACi (COMPOUND-108) for 7 days at the doses of (1.5 mg/kg and 3 mg/kg), after the treatment period animals were subjected to ARDS instillation by intratracheally. Rats were anesthetized using ketamine and xylazine (80 mg/kg and 20 mg/kg, respectively as per body weight, I.P.). Except 8 animals (Sham control), ARDS was induced in remaining all animals (24 SD rats) by intratracheal instillation of Lipopolysachharide (5 mg/kg) dissolved in normal saline.
(§4) In 4 animals from each group, the thoracic cavity was opened and the tracheas were exposed, cannulated and 3 mL sterile 0.9% saline was slowly infused into the lungs. BALF was centrifuged at 2000 rpm, 4 ° C. for 10 min using cooling centrifuge. The sedimented cell pellets were pooled and re-suspended in 500 μl of sterile saline to quantify inflammatory cell counts; supernatant BLAF was examined for ALP and LDH parameters using auto-analyzer.
A portion of the pulmonary lobe was harvested, rinsed with ice-cold phosphate buffer saline, and fixed with 10% neutral-buffered formalin, embedded in paraffin wax, sectioned (6 μm) and stained with H&E and Masson's trichrome. Three serial slices of 3 μm thickness each 50 μm apart of both lung lobes were stained with Masson's Trichrome. The slides were analyzed with a microscope in a random order using an (10×) objective. The severity of fibrosis and alveolitis in lung tissues (using H&E and Masson's trichrome staining) was semi-quantitatively assessed by a pathologist in a blinded fashion via Ashcroft scoring system^15. The structural alterations of tissue were assessed based on the degree haemorrhage, emphysema, alveolar wall thickening, inflammatory lesions and collagen deposition or fibrosis^16.

[2] = tested on: BLM-induced pulmonary fibrosis; experiment: Bleomycin (BLM) induced pulmonary fibrosis model; assay type: in vivo, Wistar rats; conditions: for ALP levels / LDH levels: BALF, oral, daily for 14 days; for BLM induced thickened alveolar walls, inflammatory cells infiltration, deposition of collagen fibers (histopathology): H&E (Fibrosis score) and Masson's staining (Ashcroft score), compared BLM alone group; for BLM-induced inflammation, fibrotic marker expression and pathological changes in lung tissues: collective in-vivo conclusion
Description: as §3
Adult female Wistar rats (180-200 g, n=50) at the age of 8-10 weeks were used to develop bleomycin induced pulmonary fibrosis model. All animals were kept under constant environmental and nutritional conditions throughout the experimental period. The research protocol complies with the ethical guidelines of experimental research; “Institutional Animal Ethics Committee” (CPSCEA Registration No. 97/GO/RBi/S/1999/CPCSEA and study approval No. IICT/056/2019), CSIR-IICT, Hyderabad.
Except 8 animals (Sham control), pulmonary fibrosis was induced in remaining all animals (32 Wistar rats) by intratracheal instillation of BLM (5 mg/kg) as sulfate salt dissolved in 1 mL of normal saline. Rats were anesthetized using ketamine and xylazine (80 mg/kg and 15 mg/kg respectively as per body weight, I.P.). BLM was administered intratracheally into the lungs of the rats.
Pulmonary fibrosis was induced by a single intratracheal instillation of BLM (5 mg/kg) to the set of animals (n=40) excluding sham control animals (n=8)^14. BLM was dissolved in saline to attain the concentration of 5 mg/ml. Animals were anesthetized with ketamine (80 mg/kg) and xylazine (10 mg/kg). BLM was administered intratracheal (5 mg/kg) to the anesthetized Wistar rats and saline was administered intratracheally in to sham control animals. […] Further, these animals were randomized into four groups (as described in Table-2) apart from sham control (8 rats/group).
As described in the grouping pattern Table 2 and 3, animals were grouped and administered the compounds orally in the form of gum-acacia suspension (0.25%) daily for 14 days. Sham control (without bleomycin) animals were used as a control for bleomycin control (disease control) and administered everyday 0.5 mL of saline for 14 days orally. After the treatment period, BALF fluid was collected from 4 animals in each group and lungs were collected from another 4 animals for ex-vivo experiments and histopathological observations.
as §4
Collagen deposition was determined by measuring the total hydroxyproline content in wet lung tissue, which was measured by a hydroxyproline assay kit (abcam), according to the manufacturer's protocol. In brief, lungs were homogenized in sterile distilled water, alkalized using 10N NaOH and heated at 120° C. for 1 hour. Following alkaline hydrolysis samples were neutralized using 10N concentrated HCL. Then samples were into 96 well plate along with standards and kept for evaporation at 65° C. Then samples were oxidized by adding oxidation mixture followed by addition of developer and incubated at 37° C. for 5 min. […]

| SMILES | vimentin levels (NHLF cells) | α-SMA levels (NHLF cells) | vimentin levels (LL29 cells) | α-SMA levels (LL29 cells) | HDAC-8 levels (gene expression) [1] | HDAC-6 mRNA levels ([1]; summary of Example 2) | ALP levels [2] | LDH levels [2] | BLM induced thickened alveolar walls, inflammatory cells infiltration, deposition of collagen fibers (histopathology) [2] | BLM-induced inflammation, fibrotic marker expression and pathological changes in lung tissues [2] | also measured |
| --- | --- | --- | --- | --- | --- | --- | --- | --- | --- | --- | --- |
| Cn1cc(-c2cc(O)cc(F)c2)c2cc(NS(=O)(=O)c3ccc(C(=O)NO)cc3)ccc21 [COMPOUND-107, 4-(N-(3-(3-fluoro-5-hydroxyphenyl)-1-methyl-1H-indol-5-yl)sulfamoyl)-N-hydroxyl benzamide] | highly reduced | highly reduced | highly reduced | highly reduced | did not modulate | could inhibit only HDAC-6 mRNA levels |  |  |  |  | Snail levels (LL29 cells; 10 and 20 μM): highly down-regulated |
| Cn1cc(-c2cccc(Cl)c2)c2cc(NS(=O)(=O)c3ccc(C(=O)NO)cc3)ccc21 [COMPOUND-108, 4-(N-(3-(3-chlorophenyl)-1-methyl-1H-indol-5-yl)sulfamoyl)-N-hydroxybenzamide] | highly reduced | highly reduced | highly reduced | highly reduced | did not modulate | potentially inhibits | reduced in dose dependently | reduced in dose dependently | reduced | could effectively protect | HDAC-8 levels (gene expression) (NHLF cells; 2.5 μM): reduced; HDAC-8 levels (gene expression) (LL29 cells; 2.5 μM): reduced; Snail levels (LL29 cells; 5 and 10 μM): highly down-regulated; lung injury and infiltration of inflammatory cells (histopathology) (LPS induced ARDS; 1.5 mg/kg): significant (p<0.01) reduction; LPS induced Neutrophil count in blood (LPS induced ARDS; 3 mg/kg): significantly attenuated; lung injury and infiltration of inflammatory cells (histopathology) (LPS induced ARDS; 3 mg/kg): significant (p<0.01) reduction; plasma IL-6 Levels (LPS induced ARDS; 3 mg/kg, at both the time points): reduced; LPS induced infiltration of Neutrophils (LPS induced ARDS; BALF): significantly attenuated; LPS induced infiltration of WBC (LPS induced ARDS; BALF): significantly attenuated; LPS induced expression of inflammatory markers (IL-6, IL-1β, CCl2, Cox-2, CXCL-6, CCL-7, CXCL-1, CXCL-10) (LPS induced ARDS; lung tissues, mRNA, dose dependent manner): significantly attenuated; LPS induced inflammatory marker's expression (CXCL-11, TLR-3 and INF-γ) (LPS induced ARDS; lung tissues, mRNA, in dose dependent manner): significantly attenuated; pathological consequences (LPS induced), H&E (LPS induced ARDS; pre-treatment at 1.5 and 3 mg/kg doses): remarkably repressed; LPS induced Lung volume (index) (LPS induced ARDS; rat, in vivo): significantly attenuated; LPS induced spleen Indices (LPS induced ARDS; rat, in vivo): significantly attenuated; lung pathological conditions (LPS induced ARDS; statement in embodiment): most effectively ameliorated; fibrotic alterations in BLM challenged rat lung tissues ([2]; statement in embodiment): most effectively ameliorated; HDAC-8 mRNA levels ([1]; summary of Example 2): potentially inhibits |
| CCOc1ccc(-c2cn(C)c3ccc(NS(=O)(=O)c4ccc(C(=O)NO)cc4)cc23)cn1 [COMPOUND-109, 4-(N-(3-(6-ethoxypyridin-3-yl)-1-methyl-1H-indol-5-yl)sulfamoyl)-N-hydroxy benzamide] | not modulated | highly reduced | not modulated | highly reduced | did not modulate | could inhibit only HDAC-6 mRNA levels | reduced in dose dependently | reduced in dose dependently | reduced | could effectively protect |  |
